Laboratory results from patent publication US20220023281A1, “HETEROCYCLIC SPIRO-COMPOUNDS AS AM2 RECEPTOR INHIBITORS” (THE UNIVERSITY OF SHEFFIELD, priority 2018, published 2022).

Target: T1, AM2 receptor-expressing cells (1321N1 cells transfected with CALCRL+RAMP3) (Homo sapiens, UniProt O60896+Q16602)
T1 construct: host or cells: 1321N1 cells
Assay: AM2 receptor inhibition, LANCE cAMP agonist-antagonist competition assay (AM2 D2 protocol)
Format: cell-based
Conditions: inhibition of AM induced cAMP in 1321N1 cells expressing CALCRL+RAMP3; read-out: AM2 D2 protocol: pIC50 (converted)
Procedure: Compounds were assessed for their ability to inhibit ligand-induced elevations of cAMP, using the Perkin Elmer LANCE cAMP assay using commercially-available cells expressing a specific receptor of interest using the following general procedure:
Compounds were prepared in dimethyl sulfoxide (DMSO—99.9% pure) (Sigma Aldrich, Cat #: D4540) added to powder stocks to produce a 20 mM solution (100% DMSO) that was sonicated at 37° C. for 10 minutes to fully dissolve the compounds. The 20 mM stocks were diluted further in DMSO to produce a 2 mM solution that was sonicated at 37° C. for 10 minutes. 2 mM stocks were dissolved in assay/stimulation buffer to produce a 400 μM solution that was sonicated at 37° C. for 10 minutes for all cAMP assays. All stocks were stored at −20° C. Then serial dilution (Dilution factor: 10) was performed to achieve the desire experimental concentrations.
Competition assays were performed according to the manufactures instructions using LANCE® TR-FRET cAMP assay kit (Perkin Elmer, Cat #: AD0264). Serial dilutions (3 μl/well) of the molecules were plated in a 384-well OptiPlate (Perkin Elmer, Cat #: 6007299) in duplicates. Appropriate controls (100% stimulation: Forskolin and 0% stimulation: Vehicle control) (6 μl/well) were included in each plate for data normalization. Following the compound addition, 6 μl of G-protein coupled receptor overexpressing cells/Alexa Fluor antibody solution (1:100 dilution) was added in each well at a desired density of 2500 cells/well. The overexpressing cell lines were purchased from DiscoveRx, Birmingham, UK. After spinning the plate at 1000 rpm for 1 minute and vortexing briefly, the cells were pre-incubated with the compounds for 30 minutes at room temperature (covered). Then 3 μl of the equivalent peptide ligand (EC50 dose) was added to all the wells except vehicle and forskolin controls. The plate were then spun down at 1000 rpm for 1 minute and once finished they were vortexed briefly and covered. Cells were stimulated in the presence of the ligands for 15 minutes at room temperature. After stimulation 12 μl of detection mix (Europium-Chelate streptavidin/biotinylated cAMP tracer solution) was added to all wells and incubated for 60 minutes at room temperature. The plate was then read on the Enspire multimode Plate reader (Perkin Elmer), at; 320/340 nm excitation and 615/665 nm emission was recorded.
Assay/Stimulation Buffer (30 mL)—pH 7.4 • 28 mL Hank's Balanced salt solution (+MgCl2, +CaCl2))—(Thermo Fisher Cat #:14170112) • 150 μl HEPES (1M)—(Thermo Fisher Cat #:15630080) • 400 μl Stabilizer (DTPA) Purified BSA (7.5%)—(Perkin Elmer, Cat #: CR84-100) • 60 μl IBMX (250 mM)—(Sigma Aldrich, Cat #: 15879)
The ability of a compound to inhibit the AM induced cAMP activation in AM2 receptor-expressing cells (1321N1 cells transfected with CALCRL+RAMP3, sourced from DiscoverX catalogue number 95-0169C6) was assessed using the protocol above.

T1 sequence (Q16602 23-461): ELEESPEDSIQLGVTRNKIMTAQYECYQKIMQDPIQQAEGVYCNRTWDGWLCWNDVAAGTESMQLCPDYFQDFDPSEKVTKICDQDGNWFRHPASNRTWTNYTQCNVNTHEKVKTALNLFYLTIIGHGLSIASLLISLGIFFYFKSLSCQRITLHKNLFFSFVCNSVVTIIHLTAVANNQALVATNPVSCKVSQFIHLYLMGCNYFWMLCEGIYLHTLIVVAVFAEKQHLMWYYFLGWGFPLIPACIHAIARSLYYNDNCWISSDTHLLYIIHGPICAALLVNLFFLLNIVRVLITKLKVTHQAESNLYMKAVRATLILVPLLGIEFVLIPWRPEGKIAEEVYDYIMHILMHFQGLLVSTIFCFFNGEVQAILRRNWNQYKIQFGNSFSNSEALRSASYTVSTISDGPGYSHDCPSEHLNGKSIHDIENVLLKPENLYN
T1 sequence (O60896 24-148): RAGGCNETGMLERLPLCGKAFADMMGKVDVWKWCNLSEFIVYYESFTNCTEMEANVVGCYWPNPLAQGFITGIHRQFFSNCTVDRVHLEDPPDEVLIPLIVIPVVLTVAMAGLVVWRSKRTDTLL

Compound	IC50
O=C(CN(C(=O)C1(C(F)(F)F)CCC1)[C@H]1CCCNC1)Nc1ccc2c(c1)C[C@@]1(C2)C(=O)Nc2ncccc21 [Example 12, N-(2-Oxo-2-(((R)-2′-oxo-1,1′,2′,3-tetrahydrospiro[indene-2,3′-pyrrolo[2,3-b]pyridin]-5-yl)amino)ethyl)-N—((S)-piperidin-3-yl)-1-(trifluoromethyl)cyclobutanecarboxamide]	263 nM
O=C(CN(C(=O)C1(C(F)(F)F)CC1)[C@H]1CCCNC1)Nc1ccc2c(c1)C[C@@]1(C2)C(=O)Nc2ncccc21 [Example 7, N-(2-Oxo-2-(((R)-2′-oxo-1,1′,2′,3-tetrahydrospiro[indene-2,3′-pyrrolo[2,3-b]pyridin]-5-yl)amino)ethyl)-N—((S)-piperidin-3-yl)-1-(trifluoromethyl)cyclopropanecarboxamide]	955 nM
O=C(CN(C(=O)C12CC(C1)C2)[C@H]1CCCNC1)Nc1ccc2c(c1)C[C@@]1(C2)C(=O)Nc2ncccc21 [Example 4, N-(2-Oxo-2-(((R)-2′-oxo-1,1′,2′,3-tetrahydrospiro[indene-2,3′-pyrrolo [2,3-b]pyridin]-5-yl)amino)ethyl)-N—((S)-piperidin-3-yl)bicyclo[1.1.1]pentane-1-carboxamide]	251 nM
CC(C)(F)C(=O)N(CC(=O)Nc1ccc2c(c1)C[C@@]1(C2)C(=O)Nc2ncccc21)[C@H]1CCCNC1 [Example 6, 2-Fluoro-2-methyl-N-[2-oxo-2-[[(3R)-2-oxospiro[1H-pyrrolo[2,3-b]pyridine-3,2′-indane]-5′-yl]amino]ethyl]-N-[(3S)-3-piperidyl]propanamide]	8320 nM
CC(C)(C(=O)N(CC(=O)Nc1ccc2c(c1)C[C@@]1(C2)C(=O)Nc2ncccc21)[C@H]1CCCNC1)C(F)(F)F [Example 9, 3,3,3-Trifluoro-2,2-dimethyl-N-(2-oxo-2-(((R)-2′-oxo-1,1′,2′,3-tetrahydrospiro[indene-2,3′-pyrrolo[2,3-b]pyridin]-5-yl)amino)ethyl)-N—((S)-piperidin-3-yl)propanamide]	43.7 nM
O=C(CN(C(=O)C1CCCC1)[C@H]1CCCNC1)Nc1ccc2c(c1)C[C@@]1(C2)C(=O)Nc2ncccc21 [Example 5, N-(2-Oxo-2-(((R)-2′-oxo-1,1′,2′,3-tetrahydrospiro[indene-2,3′-pyrrolo[2,3-b]pyridin]-5-yl)amino)ethyl)-N—((S)-piperidin-3-yl)cyclopentanecarboxamide]	170 nM
CC(C)(C#N)C(=O)N(CC(=O)Nc1ccc2c(c1)C[C@@]1(C2)C(=O)Nc2ncccc21)[C@H]1CCCNC1 [Example 10, 2-Cyano-2-methyl-N-(2-oxo-2-(((R)-2′-oxo-1,1′,2′,3-tetrahydrospiro[indene-2,3′-pyrrolo[2,3-b]pyridin]-5-yl)amino)ethyl)-N—((S)-piperidin-3-yl)propenamide]	50.1 nM
COC(C)(C)C(=O)N(CC(=O)Nc1ccc2c(c1)C[C@@]1(C2)C(=O)Nc2ncccc21)[C@H]1CCCNC1 [Example 11, 2-Methoxy-2-methyl-N-(2-oxo-2-(((R)-2′-oxo-1,1′,2′,3-tetrahydrospiro[indene-2,3′-pyrrolo[2,3-b]pyridin]-5-yl)amino)ethyl)-N—((S)-piperidin-3-yl)propenamide]	85.1 nM
CC(C)(CC(F)(F)F)C(=O)N(CC(=O)Nc1ccc2c(c1)C[C@@]1(C2)C(=O)Nc2ncccc21)[C@H]1CCCNC1 [Example 13, 4,4,4-Trifluoro-2,2-dimethyl-N-(2-oxo-2-(((R)-2′-oxo-1,1′,2′,3-tetrahydrospiro[indene-2,3′-pyrrolo[2,3-b]pyridin]-5-yl)amino)ethyl)-N—((S)-piperidin-3-yl)butanamide]	63.1 nM
CC(C)(C)C(=O)N(CC(=O)Nc1ccc2c(c1)C[C@@]1(C2)C(=O)Nc2ncccc21)[C@H]1CCCNC1 [Example 2, N-(2-Oxo-2-(((R)-2′-oxo-1,1′,2′,3-tetrahydrospiro[indene-2,3′-pyrrolo[2,3-b]pyridin]-5-yl)amino)ethyl)-N—((S)-piperidin-3-yl)pivalamide]	3.02 nM
CC(C)(C)C(=O)N(CC(=O)Nc1ccc2c(c1)CC1(C2)C(=O)Nc2ncccc21)C1CCCNC1 (stereo not drawn) [Example 1, N-(2-Oxo-2-((2′-oxo-1,1′,2′,3-tetrahydrospiro[indene-2,3′-pyrrolo[2,3-b]pyridin]-5-yl)amino)ethyl)-N-(piperidin-3-yl)pivalamide]	14.5 nM

The remaining lines, values ahead:

IC50	Compound
51.3 nM	C[C@@H]1CNC[C@@H](N(CC(=O)Nc2ccc3c(c2)C[C@@]2(C3)C(=O)Nc3ncccc32)C(=O)C(C)(C)C)C1 (relative stereo) [Example 27, N-((3S*,5S*)-5-Methylpiperidin-3-yl)-N-(2-oxo-2-(((R)-2′-oxo-1,1′,2′,3-tetrahydrospiro[indene-2,3′-pyrrolo[2,3-b]pyridin]-5-yl)amino)ethyl)pivalamide]
129 nM	CC(C)(C)C(=O)N(CC(=O)Nc1ccc2c(c1)CC1(C2)C(=O)Nc2ncccc21)C1CCCCNC1 (stereo not drawn) [Example 25, N-(Azepan-3-yl)-N-(2-oxo-2-((2′-oxo-1,1′,2′,3-tetrahydrospiro[indene-2,3′-pyrrolo[2,3-b]pyridin]-5-yl)amino)ethyl)pivalamide]
479 nM	CC(C)(C)C(=O)N(CC(=O)Nc1ccc2c(c1)CC1(C2)C(=O)Nc2ncccc21)C1CCCNCC1 (stereo not drawn) [Example 26, N-(Azepan-4-yl)-N-(2-oxo-2-((2′-oxo-1,1′,2′,3-tetrahydrospiro[indene-2,3′-pyrrolo[2,3-b]pyridin]-5-yl)amino)ethyl)pivalamide]
14.1 nM	CCC1(C(=O)N(CC(=O)Nc2ccc3c(c2)C[C@@]2(C3)C(=O)Nc3ncccc32)[C@H]2CCCNC2)CCN(C(C)=O)CC1 [Example 19, 1-Acetyl-4-ethyl-N-(2-oxo-2-(((R)-2′-oxo-1,1′,2′,3-tetrahydrospiro[indene-2,3′-pyrrolo[2,3-b]pyridin]-5-yl)amino)ethyl)-N—((S)-piperidin-3-yl)piperidine-4-carboxamide]
27.5 nM	CC1(C(=O)N(CC(=O)Nc2ccc3c(c2)C[C@@]2(C3)C(=O)Nc3ncccc32)[C@H]2CCCNC2)CCN(C(=O)N2CCCC2)CC1 [Example 21, 4-Methyl-N-(2-oxo-2-(((R)-2′-oxo-1,1′,2′,3-tetrahydrospiro[indene-2,3′-pyrrolo[2,3-b]pyridin]-5-yl)amino)ethyl)-N—((S)-piperidin-3-yl)-1-(pyrrolidine-1-carbonyl)piperidine-4-carboxamide]
50.1 nM	CC1(C(=O)N(CC(=O)Nc2ccc3c(c2)C[C@@]2(C3)C(=O)Nc3ncccc32)[C@H]2CCCNC2)CCNCC1 [Example 15, 4-Methyl-N-(2-oxo-2-(((R)-2′-oxo-1,1′,2′,3-tetrahydrospiro[indene-2,3′-pyrrolo[2,3-b]pyridin]-5-yl)amino)ethyl)-N—((S)-piperidin-3-yl)piperidine-4-carboxamide]
3020 nM	CC(C)(C)C(=O)N(CC(=O)Nc1ccc2c(c1)C[C@@]1(C2)C(=O)Nc2ncccc21)C1CC2CNC1C2 (stereo partly drawn) [Example 30, N-(2-Azabicyclo[2.2.1]heptan-6-yl)-N-(2-oxo-2-(((R)-2′-oxo-1,1′,2′,3-tetrahydrospiro[indene-2,3′-pyrrolo[2,3-b]pyridin]-5-yl)amino)ethyl)pivalamide]
186 nM	C[C@H]1CC[C@H](N(CC(=O)Nc2ccc3c(c2)C[C@@]2(C3)C(=O)Nc3ncccc32)C(=O)C(C)(C)C)CN1 (relative stereo) [Example 28, N-((3S*,6S*)-6-Methylpiperidin-3-yl)-N-(2-oxo-2-(((R)-2′-oxo-1,1′,2′,3-tetrahydrospiro[indene-3′-pyrrolo[2,3-b]pyridin]-5-yl)amino)ethyl)pivalamide]
2880 nM	CC(=O)N1CCN(C(=O)N(CC(=O)Nc2ccc3c(c2)C[C@@]2(C3)C(=O)Nc3ncccc32)[C@H]2CCCNC2)CC1 [Example 23, 4-Acetyl-N-(2-oxo-2-(((R)-2′-oxo-1,1′,2′,3-tetrahydrospiro[indene-2,3′-pyrrolo[2,3-b]pyridin]-5-yl)amino)ethyl)-N—((S)-piperidin-3-yl)piperazine-1-carboxamide]
200 nM	CC(C)(C)C(=O)N(CC(=O)Nc1ccc2c(c1)C[C@@]1(C2)C(=O)Nc2ncccc21)C1CCC2CCC1N2 (single isomer, unassigned) [Example 31B]
